# Measurements published in the supplement of paper PMC10307832.
# How the values were obtained:
# Assay in all cases: relative viability (nuclei count vs DMSO), 5 days (fraction); higher = more cells survive
# Carboplatin + Alpelisib = compound: C1CC(C1)(C(=O)O)C(=O)O.[NH2-].[NH2-].[Pt+2] [Carboplatin] + Cc1nc(NC(=O)N2CCC[C@H]2C(N)=O)sc1-c1ccnc(C(C)(C)C(F)(F)F)c1 [Alpelisib] (partner 2 µM)
# Outline: (§1)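 Five library-drug doses in √10 steps were combined with a fixed anchor-drug dose, or a single drug was given alone, by pin tool to lung cancer cell lines in 1536-well plates the day after seeding. Nuclei were stained and counted after 5 days. Relative viability is the nuclei count in treated wells over that in vehicle wells, taken as the median of duplicate plates.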
# Carboplatin + Dasatinib = compound: C1CC(C1)(C(=O)O)C(=O)O.[NH2-].[NH2-].[Pt+2] [Carboplatin] + Cc1nc(Nc2ncc(C(=O)Nc3c(C)cccc3Cl)s2)cc(N2CCN(CCO)CC2)n1 [Dasatinib] (partner 0.075 µM)
# Outline: as §1
# GSK126 + OSI-027 = compound: CC[C@H](C)N1C=C(C2=C(C=C(C=C21)C3=CN=C(C=C3)N4CCNCC4)C(=O)NCC5=C(C=C(NC5=O)C)C)C [GSK126] + COc1cccc2cc(-c3nc([C@H]4CC[C@H](C(=O)O)CC4)n4ncnc(N)c34)[nH]c12 [OSI-027] (partner 0.5 µM)
# Outline: as §1
# GSK126 + Pemetrexed = compound: CC[C@H](C)N1C=C(C2=C(C=C(C=C21)C3=CN=C(C=C3)N4CCNCC4)C(=O)NCC5=C(C=C(NC5=O)C)C)C [GSK126] + Nc1nc2[nH]cc(CCc3ccc(C(=O)N[C@@H](CCC(=O)O)C(=O)O)cc3)c2c(=O)[nH]1 [Pemetrexed] (partner 0.2 µM)
# Outline: as §1
Cell Line,relative viability (Carboplatin + Alpelisib; first compound 0.08 µM),relative viability (Carboplatin + Alpelisib; first compound 0.253 µM),relative viability (Carboplatin + Alpelisib; first compound 0.8 µM),relative viability (Carboplatin + Alpelisib; first compound 2.53 µM),relative viability (Carboplatin + Alpelisib; first compound 8 µM),relative viability (Carboplatin + Dasatinib; first compound 0.08 µM),relative viability (Carboplatin + Dasatinib; first compound 0.253 µM),relative viability (Carboplatin + Dasatinib; first compound 0.8 µM),relative viability (Carboplatin + Dasatinib; first compound 2.53 µM),relative viability (Carboplatin + Dasatinib; first compound 8 µM),relative viability (GSK126 + OSI-027; first compound 0.08 µM),relative viability (GSK126 + OSI-027; first compound 0.253 µM),relative viability (GSK126 + OSI-027; first compound 0.8 µM),relative viability (GSK126 + OSI-027; first compound 2.53 µM),relative viability (GSK126 + OSI-027; first compound 8 µM),relative viability (GSK126 + Pemetrexed; first compound 0.08 µM),relative viability (GSK126 + Pemetrexed; first compound 0.253 µM),relative viability (GSK126 + Pemetrexed; first compound 0.8 µM),relative viability (GSK126 + Pemetrexed; first compound 2.53 µM),relative viability (GSK126 + Pemetrexed; first compound 8 µM)
NCI-H650,1.13,1,1.06,0.856,0.757,0.472,0.47,0.399,0.423,0.371,0.49,0.529,0.489,0.497,0.583,1.09,0.825,0.935,0.903,1.24
NCI-H596,0.475,0.574,0.458,0.423,0.445,0.725,0.72,0.697,0.525,0.539,0.895,0.701,0.798,0.754,0.714,0.496,0.464,0.441,0.45,0.472
NCI-H2087,1.18,1.04,0.992,0.848,0.647,0.85,0.932,0.833,0.689,0.613,0.674,0.466,0.595,0.706,0.786,0.611,0.666,0.685,0.645,0.648
RERF-LC-KJ,0.887,0.806,0.81,0.883,0.594,0.892,0.767,0.747,0.706,0.517,0.648,0.66,0.597,0.652,0.575,0.462,0.465,0.443,0.462,0.461
NCI-H2126,0.777,0.763,0.795,0.758,0.713,0.727,0.693,0.71,0.57,0.501,0.725,0.861,0.721,0.649,0.707,0.71,0.725,0.702,0.686,0.645
NCI-H2228,0.813,0.687,0.561,0.593,0.566,0.667,0.482,0.425,0.444,0.326,0.635,0.729,0.579,0.613,0.634,0.374,0.312,0.354,0.312,0.392
SK-LU-1,0.903,1.07,0.933,0.792,0.392,0.198,0.205,0.166,0.179,0.165,0.435,0.37,0.401,0.416,0.387,1.06,0.938,0.956,0.953,1.06
HARA,0.814,0.812,0.714,0.719,0.73,0.205,0.252,0.209,0.213,0.302,0.543,0.541,0.476,0.466,0.392,0.247,0.258,0.231,0.215,0.215
EPLC-272H,0.966,0.931,0.936,0.986,0.843,0.455,0.342,0.326,0.365,0.399,0.295,0.309,0.318,0.353,0.303,0.327,0.327,0.26,0.366,0.322
SK-MES-1,1.06,0.906,0.922,0.873,0.917,0.574,0.354,0.344,0.379,0.363,0.626,0.649,0.637,0.654,0.712,1.01,0.996,0.979,0.941,1.09
COR-L 105,1.01,1.07,0.893,0.959,0.566,0.364,0.351,0.37,0.293,0.297,0.694,0.666,0.616,0.72,0.771,1.08,0.987,0.887,1.11,1.12
NCI-H2170,0.882,0.852,0.801,0.794,0.636,0.634,0.654,0.663,0.583,0.468,0.809,0.817,0.712,0.749,0.737,0.249,0.245,0.271,0.256,0.264
EKVX,0.908,0.877,0.743,0.783,0.87,0.603,0.582,0.48,0.446,0.495,0.753,0.679,0.669,0.822,0.781,0.403,0.373,0.413,0.374,0.31
NCI-H1437,0.988,0.989,0.929,0.947,0.828,0.619,0.411,0.428,0.411,0.325,0.913,0.854,0.77,0.844,0.828,0.298,0.325,0.306,0.305,0.353
PC-3 [JPC-3],1.06,1.11,0.992,1,0.834,1,1.09,0.985,0.95,0.864,0.839,0.847,0.76,0.822,0.855,1.15,1.04,1.08,1.22,1.08
LK-2,1.41,1.23,0.837,0.961,1.09,0.275,0.252,0.295,0.197,0.379,0.168,0.245,0.212,0.282,0.303,0.306,0.297,0.293,0.325,0.223
